Measurements as given in US12241902B2, “Probes for detection of copper” (The Regents of the University of California, priority 2019, dated 2025).

Legend:
[1] = tested on: labile Cu(I) in Ctr1^+/+ MEFs; assay: Confocal fluorescence imaging of labile Cu(I) in Ctr1+/+ MEFs; assay type: cell-based, mouse
Experimental: (A) Confocal fluorescence microscopy images of Ctr1^+/+ MEFs and Ctr1^−/− MEFs treated with solvent control, CuCl2 (100 or 300 μM) or BCS (500 μM) in complete medium for 8 h, washed with complete medium and PBS, incubated with FCP-1 (5 μM) in DPBS for 45 min, and then imaged with λex=458 nm. (B) Average cellular ratiometric emission ratios of FCP-1, Fgreen/Forange, as determined from experiments performed in triplicate. (C) Total cellular ^63Cu levels were determined by ICP-MS experiments (with normalization of different cell numbers by total cellular ^31P level). (D) Confocal fluorescence microscopy images of Ctr1^+/+ MEFs and Ctr1^−/− MEFs incubated with FL-TPA (5 μM) in DPBS for 45 min. The cells were then imaged with λex=488 nm. (E) Average cellular fluorescence intensity of FL-TPA, FFL-TPA, determined from experiments performed in triplicate with λex=488 nm. Error bars denote SD (n=3). *p<0.05, **p<0.01 and ***p<0.001.
(§1) Cell culture. Following cell cultures were grown: Human embryonic kidney (HEK 293T) cells were maintained in Dulbecco's Modified Eagle Medium (DMEM) supplemented with 10 vol % fetal bovine serum (FBS), 1 vol % GlutaMax (Gibco) and 1 vol % non-essential amino acids (NEAA, Gibco). Ctrl1^+/+ and Ctr1^−/− MEF cells were maintained in DMEM with 10 vol % FBS, 1 vol % non-essential amino acids, 1 vol % sodium pyruvate and 0.1 vol % 2-mercaptoethanol or DMEM supplemented with 10 vol % FBS and 1× Penicillin-Streptomycin. Human cervical epithelial carcinoma (HeLa) was maintained in DMEM medium supplemented with 1 vol % GlutaMAX and 10 vol % FBS. All cells were incubated in 5% CO2 humidified air and subcultured at 80% confluence.
Confocal fluorescence microscopy imaging. For confocal fluorescence imaging experiments of HEK293T, MEF Ctr1^+/+ and Ctr1^−/− and HeLa cells, the cells were plated on 8-well Lab Tek borosilicate chambered coverglass slides (Nunc), and allowed to grow to ca. 60% confluency before performing the cell imaging experiments. The confocal imaging was performed with a Zeiss laser scanning microscope 710 with 20× or 63× oil-immersion objective lens using Zen 2009 software (Carl Zeiss). FCP-1 was excited with 458 nm with an Ar laser, and the emissions were collected using a META detector between 465 and 541 nm (Fgreen), and between 559 and 710 nm (Forange). DRAQ-5 was excited with a 633 nm He Ne laser, and its emission was collected using a META detector between 661 and 759 nm. Image analysis was performed using ImageJ, with ratiometric images generated by the Ratio Plus plugin of ImageJ. For quantification, a threshold value was set as background and the average intensity of the whole image was measured by ImageJ. All experiments were performed in triplicate, and statistical analyses were performed with a two-tailed Student's t-test (MS excel).
Having established that FCP-1 is sensitive to endogenous pools of labile Cu(I) under basal conditions and can respond to changes in labile Cu(I) pools upon pharmacological copper supplementation and/or depletion, the application of FCP-1 to visualize alterations in endogenous labile Cu(I) pools through genetic manipulation was explored. To this end, comparative FCP-1 imaging was performed in mouse embryonic fibroblast cells that are either Cu-replete (Ctr1^+/+ MEFs) or Cu-deficient (Ctr1^−/− MEFs) through knockout of the high-affinity copper transporter CTR1 (64-66).
Complementary ICP-MS measurements confirm that total copper levels in Ctr1^−/− MEFs are lower than Ctr1^+/+ MEFs (FIG. 12C). […]

[2] = tested on: labile Cu(I) pools in HEK 293T cells; assay: Ratiometric confocal fluorescence imaging of labile Cu(I) in HEK 293T cells; assay type: cell-based, Human
Experimental: (A) Confocal fluorescence microscopy images of HEK 293T cells pretreated with solvent vehicle control or varying concentrations of CuCl2 in complete medium for 18 h. The cells were then washed with PBS, incubated with FCP-1 (5 μM) in DPBS for 45 min and then imaged. (B) Average cellular ratiometric emission ratios, represented by Fgreen/Forange, as determined from imaging experiments in (A) performed in triplicate. (C) Confocal fluorescence microscopy images of HEK 293T cells pretreated with solvent vehicle control or BCS (100 μM) in complete medium for 18 h. The cells were then washed with PBS, incubated with FCP-1 (5 μM) in DPBS for 45 min and then imaged. (D) Average cellular ratiometric emission ratios of FCP-1, Fgreen/Forange, as determined from experiments in (C) performed in triplicate. […] (E) ICP-MS measurement to determine total cellular ^63Cu levels in HEK293T cells under copper supplementation and depletion relative to the control (with normalization of different cell numbers by total cellular ^31P level). Error bars denote standard derivation (SD; n=3). *p<0.05, **p<0.01, ***p<0.001, ****p<0.0001 and *****p<0.00001.
as §1, with “All cells were incubated in 5% CO2 humidified air and subcultured at 80% confluence.” left out
Confocal fluorescence microscopy imaging. For confocal fluorescence imaging experiments of HEK293T, MEF Ctr1^+/+ and Ctr1^−/− and HeLa cells, the cells were plated on 8-well Lab Tek borosilicate chambered coverglass slides (Nunc), and allowed to grow to ca. 60% confluency before performing the cell imaging experiments. […] For quantification, a threshold value was set as background and the average intensity of the whole image was measured by ImageJ. […]
Given the metal and oxidation state-selective and sensitive response of FCP-1 to Cu(I), this probe was examined for ratiometric fluorescence imaging of labile Cu(I) pools in living cells. […] The observed increases and decreases in labile Cu(I) levels upon copper supplementation (CuCl2) and copper depletion (BCS) treatments, respectively, as measured by FCP-1 imaging were supported by complementary ICP-MS measurements of total copper levels showing expected increases and decreases in the total copper pool (FIG. 9, panel C).

For `CC[N+](CC)=c1ccc2c(-c3ccccc3C(=O)O)c3ccc(N4CCN(Cc5cccc(CN(Cc6ccccn6)Cc6cccc(COc7ccc8c(-c9ccccc9C(=O)OC)c9ccc(=O)cc-9oc8c7)n6)n5)CC4)cc3oc-2c1` [FCP-1], which “cellular viability by nuclear stain DRAQ5” value ([1]; Ctr1+/+ MEFs (FIG. 13)) is on record?
The value was “cellular viability was maintained”.

And the “Fgreen/Forange ratio after BCS” value ([1]; Ctr1+/+ MEFs, BCS)?
Its value is “reduction in Fgreen/Forange ratio”.

And the “Fgreen/Forange ratio after CuCl2” value ([1]; Ctr1+/+ MEFs, varying concentrations of CuCl2)?
The value was “dose-dependent increase”.

What about the “Fgreen/Forange ratio, Ctr1+/+ MEFs compared to Ctr1−/− MEFs” value ([1]; basal, FCP-1 5 μM, p<0.01) of the same compound?
The value was “higher Fgreen/Forange ratios”.

And the “Fgreen/Forange ratio in copper-deficient cells compared to control” value ([2]; BCS 100 μM pretreatment, FCP-1 5 μM)?
Its value is “statistically significant decrease”.

And the “Fgreen/Forange ratio in copper-supplemented cells over vehicle control” value ([2]; CuCl2 25-300 μM pretreatment, FCP-1 5 μM 45 min)?
Its value is “statistically significant, dose-dependent increase”.

And the “cell viability by nuclear staining” value ([2]; FCP-1 5 μM, DRAQ-5 (FIGS. 10-11))?
Its value is “remained viable”.
